{"source": "patent US20230404998A1", "about": "“Combination Therapies for Treating Cancer” (ASCENTAGE PHARMA (SUZHOU) CO., LTD., priority 2020, published 2023)", "conditions_in_all_cases": "read-out: Anti-proliferation (IC50)", "key": {"[1]": {"molecular_target": "BaF3(Bcr-Abl) T315I-F359V (Homo sapiens, UniProt P00519, T315I/F359V, cells depend on it)", "description": "(§1) The anti-proliferative effect was determined by a water-soluble tetrazolium (WST)-based assay using Cell Counting Kit-8 (CCK-8, #D3100L4057, Shanghai life ilab bio technology co., LTD, China). Cells were seeded in 96-well plates and treated with different concentrations of test articles. […] Each treatment was tested in triplicates. The plate was then cultured at 37° C. with 5% CO2 for 72 hours. At the end of treatments, 20 μl/well of CCK-8 reagent was directly added to each wells. The plate was then incubated at 37° C. with 5% CO2 for 2-4 h. The OD value was detected at 450 nm on a microplate reader (SpectraMax I3X, Molecular Devices, US). IC50 values were calculated with Graphpad Prism 7.0 software using nonlinear regression (curve fitting) type data analysis. For combination effect assay, the cells viability was normalized using the mean OD value of triplicated wells for the single agent control."}, "BaF3(Bcr-Abl) T315I-255K": {"molecular_target": "BaF3(Bcr-Abl) T315I-255K (Homo sapiens, UniProt P00519, E255K/T315I, cells depend on it)", "description": "as §1"}, "BaF3(Bcr-Abl) F359V": {"molecular_target": "BaF3(Bcr-Abl) F359V (Homo sapiens, UniProt P00519, F359V, cells depend on it)", "description": "as §1"}, "BaF3(Bcr-Abl) F317L": {"molecular_target": "BaF3(Bcr-Abl) F317L (Homo sapiens, UniProt P00519, F317L, cells depend on it)", "description": "as §1"}, "[2]": {"molecular_target": "BaF3(Bcr-Abl) T315I-G250E (Homo sapiens, UniProt P00519, G250E/T315I, cells depend on it)", "description": "as §1"}, "[3]": {"molecular_target": "BaF3(Bcr-Abl) T315I-E255V (Homo sapiens, UniProt P00519, E255V/T315I, cells depend on it)", "description": "as §1"}, "BaF3(Bcr-Abl) E255V": {"molecular_target": "BaF3(Bcr-Abl) E255V (Homo sapiens, UniProt P00519, E255V, cells depend on it)", "description": "as §1"}, "[4]": {"molecular_target": "BaF3(Bcr-Abl) Y253H-F359V (Homo sapiens, UniProt P00519, Y253H/F359V, cells depend on it)", "description": "as §1"}, "BaF3(Bcr-Abl) V299L": {"molecular_target": "BaF3(Bcr-Abl) V299L (Homo sapiens, UniProt P00519, V299L, cells depend on it)", "description": "as §1"}, "BaF3(Bcr-Abl) Wild-type": {"molecular_target": "BaF3(Bcr-Abl) Wild-type (Homo sapiens, UniProt P00519)", "description": "as §1"}, "BaF3(Bcr-Abl) 7253H": {"molecular_target": "BaF3(Bcr-Abl) 7253H (Homo sapiens, UniProt P00519, Y253H, cells depend on it)", "description": "as §1"}, "[5]": {"molecular_target": "BaF3(Bcr-Abl) T315I-H396R (Homo sapiens, UniProt P00519, T315I/H396R, cells depend on it)", "description": "as §1"}, "BaF3(Bcr-Abl) T3151": {"molecular_target": "BaF3(Bcr-Abl) T3151 (Homo sapiens, UniProt P00519, T315I, cells depend on it)", "description": "as §1"}, "[6]": {"molecular_target": "BaF3(Bcr-Abl) T316I-M244V (Homo sapiens, UniProt P00519, M244V/T315I, cells depend on it)", "description": "as §1"}, "[7]": {"molecular_target": "BaF3(Bcr-Abl) T315I-E459K (Homo sapiens, UniProt P00519, T315I/E459K, cells depend on it)", "description": "as §1"}, "[8]": {"molecular_target": "BaF3(Bcr-Abl) F317L-M351T (Homo sapiens, UniProt P00519, F317L/M351T, cells depend on it)", "description": "as §1"}, "BaF3(Bcr-Abl) V299L-F39V": {"molecular_target": "BaF3(Bcr-Abl) V299L-F39V (Homo sapiens, UniProt P00519, V299L/F359V, cells depend on it)", "description": "as §1"}, "BaF3(Bcr-Abl) F311I": {"molecular_target": "BaF3(Bcr-Abl) F311I (Homo sapiens, UniProt P00519, F311I, cells depend on it)", "description": "as §1"}, "BaF3(Bcr-Abl) M244V": {"molecular_target": "BaF3(Bcr-Abl) M244V (Homo sapiens, UniProt P00519, M244V, cells depend on it)", "description": "as §1"}, "[9]": {"molecular_target": "BaF3(Bcr-Abl) T315I-M351T (Homo sapiens, UniProt P00519, T315I/M351T, cells depend on it)", "description": "as §1"}, "[10]": {"molecular_target": "BaF3(Bcr-Abl) T315I-F317L (Homo sapiens, UniProt P00519, T315I/F317L, cells depend on it)", "description": "as §1"}, "BaF3(Bcr-Abl) E459L": {"molecular_target": "BaF3(Bcr-Abl) E459L (Homo sapiens, UniProt P00519, cells depend on it, form not given)", "description": "as §1"}, "BaF3(Bcr-Abl) T35I-F311I": {"molecular_target": "BaF3(Bcr-Abl) T35I-F311I (Homo sapiens, UniProt P00519, F311I/T315I, cells depend on it)", "description": "as §1"}, "[11]": {"molecular_target": "BaF3(Bcr-Abl) F317L-F359V (Homo sapiens, UniProt P00519, F317L/F359V, cells depend on it)", "description": "as §1"}, "BaF3(Bcr-Abl) G250E": {"molecular_target": "BaF3(Bcr-Abl) G250E (Homo sapiens, UniProt P00519, G250E, cells depend on it)", "description": "as §1"}, "[12]": {"molecular_target": "BaF3(Bcr-Abl) T315I-Y253H (Homo sapiens, UniProt P00519, Y253H/T315I, cells depend on it)", "description": "as §1"}}}
{"smiles": "Cc1ccc(C(=O)Nc2ccc(CN3CCN(C)CC3)c(C(F)(F)F)c2)cc1C#Cc1cnc2[nH]ncc2c1", "note": "[HQP1351, 3-(2-(1H-pyrazolo[3,4-b]pyridin-5-yl)ethynyl)-4-methyl-N-(4-((4-methylpiperazin-1-yl)methyl)-3-(trifluoromethyl)phenyl)-benzamide]", "values": [{"measurement": "GI50", "setting": "[1]", "value": "20 ± 10", "unit": "nM"}, {"measurement": "GI50", "setting": "BaF3(Bcr-Abl) T315I-255K", "value": "40 ± 5", "unit": "nM"}, {"measurement": "GI50", "setting": "BaF3(Bcr-Abl) F359V", "value": "50 ± 16", "unit": "nM"}, {"measurement": "GI50", "setting": "BaF3(Bcr-Abl) F317L", "value": "8 ± 3", "unit": "nM"}, {"measurement": "GI50", "setting": "[2]", "value": "33 ± 2", "unit": "nM"}, {"measurement": "GI50", "setting": "[3]", "value": "26 ± 11", "unit": "nM"}, {"measurement": "GI50", "setting": "BaF3(Bcr-Abl) E255V", "value": "27 ± 11", "unit": "nM"}, {"measurement": "GI50", "setting": "[4]", "value": "311 ± 35", "unit": "nM"}, {"measurement": "GI50", "setting": "BaF3(Bcr-Abl) V299L", "value": "8 ± 4", "unit": "nM"}, {"measurement": "GI50", "setting": "BaF3(Bcr-Abl) Wild-type", "value": 6, "unit": "nM"}, {"measurement": "GI50", "setting": "BaF3(Bcr-Abl) 7253H", "value": "7 ± 1", "unit": "nM"}, {"measurement": "GI50", "setting": "[5]", "value": "79 ± 54", "unit": "nM"}, {"measurement": "GI50", "setting": "BaF3(Bcr-Abl) T3151", "value": "24 ± 10", "unit": "nM"}, {"measurement": "GI50", "setting": "[6]", "value": "76 ± 53", "unit": "nM"}, {"measurement": "GI50", "setting": "[7]", "value": "109 ± 4", "unit": "nM"}, {"measurement": "GI50", "setting": "[8]", "value": "32 ± 25", "unit": "nM"}, {"measurement": "GI50", "setting": "BaF3(Bcr-Abl) V299L-F39V", "value": "32 ± 4", "unit": "nM"}, {"measurement": "GI50", "setting": "BaF3(Bcr-Abl) F311I", "value": "23 ± 13", "unit": "nM"}, {"measurement": "GI50", "setting": "BaF3(Bcr-Abl) M244V", "value": "41 ± 8", "unit": "nM"}, {"measurement": "GI50", "setting": "[9]", "value": "67 ± 44", "unit": "nM"}, {"measurement": "GI50", "setting": "[10]", "value": "117 ± 23", "unit": "nM"}, {"measurement": "GI50", "setting": "BaF3(Bcr-Abl) E459L", "value": 106, "unit": "nM"}, {"measurement": "GI50", "setting": "BaF3(Bcr-Abl) T35I-F311I", "value": "78 ± 46", "unit": "nM"}, {"measurement": "GI50", "setting": "[11]", "value": "25 ± 13", "unit": "nM"}, {"measurement": "GI50", "setting": "BaF3(Bcr-Abl) G250E", "value": "29 ± 4", "unit": "nM"}, {"measurement": "GI50", "setting": "[12]", "value": "114 ± 1", "unit": "nM"}]}
